Experimental data: patent US20030069232A1, “Topical treatment of ocular hypertension, glaucoma, ischemic retinopathy and age-related macular degeneration with ophthalmic formulation of dopamine antagonists” (priority 1999, published 2003)

Tested on: New Zealand white rabbit eyes
Experiment: Eye irritation in rabbit eyes (Draize Test)
Type: in vivo
Conditions: 50 μl of 1% droperidol; slit lamp biomicroscope
Method: 50 μl of 1% droperidol was used to test for eye irritation in New Zealand white rabbit eyes using the standard procedure of the Draize Test. […] Eyedrops were instilled in the eyes, and the responses of the eyes were examined with a slit lamp biomicroscope.

## O=C(CCCN1CC=C(n2c(=O)[nH]c3ccccc32)CC1)c1ccc(F)cc1 [droperidol, Droperidol]
  Eye irritation: either absent or insignificant
